The target of assay [1] is T1, rGLUT5 (Rattus norvegicus, UniProt P43427).
T1 construct: gene Slc2a5
T1 sequence (P43427 1-502): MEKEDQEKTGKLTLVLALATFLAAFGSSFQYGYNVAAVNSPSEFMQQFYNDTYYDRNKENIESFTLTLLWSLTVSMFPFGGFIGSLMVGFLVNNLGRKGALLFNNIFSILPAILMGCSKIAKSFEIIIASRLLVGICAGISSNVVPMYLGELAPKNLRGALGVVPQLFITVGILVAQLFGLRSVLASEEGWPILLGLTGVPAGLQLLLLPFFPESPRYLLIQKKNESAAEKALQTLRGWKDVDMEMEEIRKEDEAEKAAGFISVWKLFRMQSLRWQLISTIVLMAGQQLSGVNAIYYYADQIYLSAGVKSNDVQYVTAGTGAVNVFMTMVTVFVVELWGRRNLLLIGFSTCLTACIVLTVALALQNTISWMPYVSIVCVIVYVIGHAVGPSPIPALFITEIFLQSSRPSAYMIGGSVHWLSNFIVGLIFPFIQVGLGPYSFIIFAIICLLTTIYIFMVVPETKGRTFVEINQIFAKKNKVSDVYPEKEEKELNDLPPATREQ
Nature of the assay: competitive […]-D-fructose uptake in proteoliposomes, […] compound, […] reduction. The format is biochemical.

Assay [2] concerns the target T1, rGLUT5. Put plainly: inhibition of […]-D-fructose uptake by purified rGLUT5 in brain-fraction-seven proteoliposomes. The format is biochemical.

As to `Cc1ccc(NC(=O)Oc2ccccc2)cc1` [C2, phenyl-n-(p-tolyl)-carbamate], the “% reduction” value at rGLUT5 [1] is given as 20 % reduction. Broadly, the IC50 is the point on the concentration scale where inhibition reaches its midpoint. A higher IC50 goes with weaker potency. Regarding `Cc1ccc(NC(=O)Oc2ccc(C)cc2)cc1` [H4, 4-methylphenyl-N-(4-methylphenyl)-carbamate], half-maximal inhibition at rGLUT5 [2] (IC50) required 500 µM.
